Source: PubChem BioAssay AID1915 (Broad Institute, 2009)
Records with an inconclusive call do not appear.

Test system: Group A Streptococcus UMAA2166 viability, BacTiterGlo luminescence, 6 h
Assay: Group A Streptococcus viability loss, dose response, counter-screen for streptokinase expression inhibitor project, luminescence, BacTiterGlo (AID 1915)

Row | SMILES | IC50 [µM]
1 | CN(C)c1ccnc2c[cH-]cc12.[Fe].c1ccc(-[c-]2[c-](-c3ccccc3)[c-](-c3ccccc3)[c-](-c3ccccc3)[c-]2-c2ccccc2)cc1 (configuration not stated) | 8.69
2 | CNC(CC(C)C)C(=O)NC1C(=O)NC(CC(N)=O)C(=O)NC2C(=O)NC3C(=O)NC(C(=O)NC(C(=O)O)c4cc(O)cc(O)c4-c4cc3ccc4O)C(O)c3ccc(c(Cl)c3)Oc3cc2cc(c3OC2OC(CO)C(O)C(O)C2OC2CC(C)(N)C(O)C(C)O2)Oc2ccc(cc2Cl)C1O (configuration not stated) | 0.341
